Data: US9890185B2, “Urea derivatives useful as kinase inhibitors” (Respivert Limited, priority 2013, dated 2018)

Columns and labels:
PBMCs [1] = test: IL-2 release in CD3/CD28 stimulated PBMC cells (assay c); assay type: cell-based; details: Homo sapiens, read-out: IC50 Values for Inhibition of Cytokine Release, PBMCs IL-2
Method: (§1) PBMCs from healthy subjects are separated from whole blood using a density gradient (Lymphoprep, Axis-Shield Healthcare). Cells are added to a 96 well plate pre-coated with a mixture of CD3/CD28 monoclonal antibodies (0.3 μg/mL eBioscience and 3 μg/mL BD Pharmingen respectively). Compound at the desired concentration is then added to the wells and the plate left for 3 days under normal tissue culture conditions. Supernatants are harvested and IL-2 and IFN gamma release determined by Sandwich ELISA (Duo-set, R&D System). The IC50 is determined from the dose response curve.

Syk = Syk (Homo sapiens (Human), UniProt P43405); test: Syk enzyme inhibition (FRET, Z-LYTE); assay type: biochemical
Procedure, shortened: (§2)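 Z-LYTE FRET; enzyme + cpd 2 hr RT, then peptide + ATP 1 hr (ATP added soln: c-Src 800 μM, Syk 60 μM); protease 1 hr. Donor/acceptor emission ratio, % inhib vs uninhibited control, IC50 from curve.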

[2] = target: p38 MAPKα isoform (MAPK14) (Homo sapiens (Human), UniProt Q16539); test: p38 MAPKα enzyme inhibition (FRET, Z-LYTE, Method 2); assay type: biochemical
p38 MAPKα isoform (MAPK14), sequence (Q16539 whole entry, canonical isoform): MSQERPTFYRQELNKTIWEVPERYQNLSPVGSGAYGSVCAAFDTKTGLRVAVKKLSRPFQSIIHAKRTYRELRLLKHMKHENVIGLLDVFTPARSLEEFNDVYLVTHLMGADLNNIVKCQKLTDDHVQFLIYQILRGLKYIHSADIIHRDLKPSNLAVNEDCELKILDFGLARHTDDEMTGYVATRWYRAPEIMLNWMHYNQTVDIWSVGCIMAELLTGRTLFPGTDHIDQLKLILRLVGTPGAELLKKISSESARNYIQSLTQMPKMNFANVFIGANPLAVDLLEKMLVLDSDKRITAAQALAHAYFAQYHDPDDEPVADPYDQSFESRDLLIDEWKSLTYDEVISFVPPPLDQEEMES
Procedure, shortened: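 Z-LYTE FRET: p38 MAPKα (80 ng/mL for Method 1, 200 ng/mL for Method 2, pre-dilution) preincubated 2 hr RT with compound (4–0.004 μg/mL solutions), activity read via MAPKAP-K2 phosphorylation after 1 hr RT and 1 hr protease development. Coumarin/fluorescein ratio gives phosphorylation; % inhibition versus uninhibited control, IC50 from concentration-response curve.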

PBMCs [3] = test: Cell mitosis assay in PBMCs (assay g); assay type: cell-based; details: Homo sapiens, PBMC, test compound 5 μg/mL
Procedure, shortened: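 Metaphase arrest with 0.1 μg/mL demecolcine during the final 2 hr of a 20 hr compound exposure, which follows 48 hr of 2% PHA stimulation of healthy-donor human PBMCs. Mitotic lymphocytes counted by flow cytometry (anti-phospho-histone 3 plus propidium iodide). Inhibition expressed relative to 0.5% DMSO.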

PBMCs [4] = test: IFN gamma release in CD3/CD28 stimulated PBMC cells (assay c); assay type: cell-based; details: Homo sapiens, read-out: IC50 Values for Inhibition of Cytokine Release, PBMCs IFNγ
Method: as §1

c-Src = c-Src (Homo sapiens (Human), UniProt P12931); test: c-Src enzyme inhibition (FRET, Z-LYTE); assay type: biochemical
c-Src, sequence (P12931 whole entry, looked up): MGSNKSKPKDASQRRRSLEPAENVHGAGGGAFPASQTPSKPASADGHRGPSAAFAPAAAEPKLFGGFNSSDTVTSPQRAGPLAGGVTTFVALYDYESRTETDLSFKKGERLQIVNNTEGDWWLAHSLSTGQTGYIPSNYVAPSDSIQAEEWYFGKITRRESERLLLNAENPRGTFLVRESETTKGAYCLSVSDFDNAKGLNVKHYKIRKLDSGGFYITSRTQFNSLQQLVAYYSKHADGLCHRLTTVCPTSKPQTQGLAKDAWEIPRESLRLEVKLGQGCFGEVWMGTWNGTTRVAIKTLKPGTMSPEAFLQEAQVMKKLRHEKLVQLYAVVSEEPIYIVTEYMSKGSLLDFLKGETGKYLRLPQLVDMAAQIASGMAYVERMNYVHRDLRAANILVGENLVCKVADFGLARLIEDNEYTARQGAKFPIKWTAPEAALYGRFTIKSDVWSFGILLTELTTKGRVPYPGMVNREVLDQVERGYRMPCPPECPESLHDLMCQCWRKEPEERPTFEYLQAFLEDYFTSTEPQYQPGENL
Procedure, shortened: as §2

PBMCs [5] = test: LPS-induced IL-8 release in PBMC cells (assay b); assay type: cell-based, human; details: Homo sapiens, PBMC; LPS-stimulated PBMCs; read-out: IC50 Values for Inhibition of Cytokine Release, PBMCs IL-8
Procedure, shortened: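 Cytokines (TNFα, IL-8) in supernatants were quantified by sandwich ELISA after a 24 h challenge with 1 ng/mL E. coli LPS at 37° C, 5% CO2. Healthy-donor PBMCs had been exposed to compound for 2 h beforehand. IC50 values were fitted from the concentration-response curves.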

GSK 3α = GSK 3α (Homo sapiens (Human), UniProt P49840); test: GSK 3α enzyme inhibition (FRET, Z-LYTE, Method 2); assay type: biochemical; details: read-out: IC50 Values for Enzyme Inhibition, GSK3α
GSK 3α, sequence (P49840 whole entry): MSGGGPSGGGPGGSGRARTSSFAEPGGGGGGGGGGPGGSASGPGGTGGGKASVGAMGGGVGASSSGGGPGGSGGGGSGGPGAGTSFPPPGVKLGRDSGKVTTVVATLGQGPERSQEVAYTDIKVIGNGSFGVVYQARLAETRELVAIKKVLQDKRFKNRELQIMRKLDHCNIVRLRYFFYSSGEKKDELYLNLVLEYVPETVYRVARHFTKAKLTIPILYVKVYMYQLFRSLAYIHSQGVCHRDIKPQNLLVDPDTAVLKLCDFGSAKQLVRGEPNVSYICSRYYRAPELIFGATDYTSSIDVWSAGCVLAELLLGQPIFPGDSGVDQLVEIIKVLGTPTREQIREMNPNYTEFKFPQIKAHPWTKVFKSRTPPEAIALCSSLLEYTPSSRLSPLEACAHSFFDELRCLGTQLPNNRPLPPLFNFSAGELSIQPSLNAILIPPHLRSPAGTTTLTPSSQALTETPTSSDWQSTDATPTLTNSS
Procedure, shortened: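 Human GSK3α (500 ng/mL) preincubated with compound (4, 0.4, 0.04 or 0.004 μg/mL) at RT for 2 h (Method 1) or 105 min (Method 2). Then FRET peptide (8 μM) and ATP (40 μM) added for 1 h, followed by protease development for 1 h. IC50 from the coumarin/fluorescein emission ratio relative to uninhibited control.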

COc1cc(Nc2cc(Oc3ccc(NC(=O)Nc4cc(C(C)(C)C)cc(S(C)(=O)=O)c4OC)c4ccccc34)ccn2)cc(C(=O)NCCN2CC[S+]([O-])CC2)c1 [38(an), 3-((4-((4-(3-(5-(tert-Butyl)-2-methoxy-3-(methylsulfonyl)phenyl)ureido)naphthalen-1-yl)oxy)pyridin-2-yl)amino)-5-methoxy-N-(2-(1-oxidothiomorpholino)ethyl)benzamide]
IC50 (PBMCs [1]): 81.8 nM | IC50 (Syk): 99 nM | IC50 [2]: 48 nM | inhibition at 5 µg/mL (PBMCs [3]): 30.1% | IC50 (PBMCs [4]): 8.2 nM | IC50 (c-Src): 24 nM | IC50 (PBMCs [5]): 3.8 nM | IC50 (GSK 3α): 3600 nM

COCCOCCOCCNC(=O)c1cc(Nc2cc(Oc3ccc(NC(=O)Nc4cc(C(C)(C)C)cc(CNC(C)=O)c4OC)c4ccccc34)ccn2)cc(OC)c1 [38(y), 3-((4-((4-(3-(3-(Acetamidomethyl)-5-(tert-butyl)-2-methoxyphenyl)ureido)naphthalen-1-yl)oxy)pyridin-2-yl)amino)-5-methoxy-N-(2-(2-(2-methoxyethoxy)ethoxy)ethyl)benzamide]
IC50 (PBMCs [1]): 28.3 nM | IC50 (Syk): 393 nM | IC50 [2]: 21 nM | inhibition at 5 µg/mL (PBMCs [3]): 65.7% | IC50 (PBMCs [4]): 7.9 nM | IC50 (c-Src): 15 nM | IC50 (PBMCs [5]): 0.5 nM | IC50 (GSK 3α): 867 nM

COc1cc(Nc2cc(Oc3ccc(NC(=O)Nc4cc(C(C)(C)C)cc(P(C)(C)=O)c4OC)c4ccccc34)ccn2)cc(S(=O)(=O)N(C)CCCN2CCOCC2)c1 [79(d), 1-(5-tert-Butyl-3-dimethylphosphoryl-2-methoxy-phenyl)-3-[4-[[2-[3-methoxy-5-[methyl(3-morpholinopropyl)sulfamoyl]anilino]-4-pyridyl]oxy]-1-naphthyl]urea]
IC50 (PBMCs [1]): 624 nM | IC50 (Syk): > 1160 nM | IC50 [2]: 39 nM | inhibition at 5 µg/mL (PBMCs [3]): 19.9% | IC50 (PBMCs [4]): 14.6 nM | IC50 (c-Src): 218 nM | IC50 (PBMCs [5]): 3.9 nM | IC50 (GSK 3α): 3940 nM

COCCOCCOCCNC(=O)c1cc(Nc2cc(Oc3ccc(NC(=O)Nc4cc(C(C)(C)C)cc([S+](C)[O-])c4OC)c4ccccc34)ccn2)cc(OC)c1 (stereo not drawn) [Example 48, 3-((4-((4-(3-(5-(tert-Butyl)-2-methoxy-3-(methylsulfinyl)phenyl)ureido)naphthalen-1-yl)oxy)pyridin-2-yl)amino)-5-methoxy-N-(2-(2-(2-methoxyethoxy)ethoxy)ethyl)benzamide]
IC50 (PBMCs [1]): 116 nM | IC50 (Syk): > 1230 nM | IC50 [2]: 25 nM | inhibition at 5 µg/mL (PBMCs [3]): 35.6% | IC50 (PBMCs [4]): 3.7 nM | IC50 (c-Src): 37 nM | IC50 (PBMCs [5]): 0.4 nM | IC50 (GSK 3α): 2670 nM

COc1c(CC(N)=O)cc(C(C)(C)C)cc1NC(=O)Nc1ccc(Oc2ccnc(Nc3cc(C#N)cc(OCCN4CCOCC4)c3)c2)c2ccccc12 [Example 49, 2-(5-(tert-Butyl)-3-(3-(4-((2-((3-cyano-5-(2-morpholinoethoxy)phenyl)amino)pyridin-4-yl)oxy)naphthalen-1-yl)ureido)-2-methoxyphenyl)acetamide]
IC50 (PBMCs [1]): 91 nM | IC50 (Syk): > 1340 nM | IC50 [2]: 124 nM | inhibition at 5 µg/mL (PBMCs [3]): 43.9% | IC50 (PBMCs [4]): 5.7 nM | IC50 (c-Src): 39 nM | IC50 (PBMCs [5]): 0.8 nM | IC50 (GSK 3α): 4510 nM

COc1c(NC(=O)Nc2ccc(Oc3ccnc(Nc4cc(C#N)cc(OCCN5CCOCC5)c4)c3)c3ccccc23)cc(C(C)(C)C)cc1[S+](C)[O-] (stereo not drawn) [Example 51, 1-(5-(tert-Butyl)-2-methoxy-3-(methylsulfinyl)phenyl)-3-(4-((2-((3-cyano-5-(2-morpholinoethoxy)phenyl)amino)pyridin-4-yl)oxy)naphthalen-1-yl)urea]
IC50 (PBMCs [1]): 101 nM | IC50 (Syk): > 1340 nM | IC50 [2]: 158 nM | inhibition at 5 µg/mL (PBMCs [3]): 28% | IC50 (PBMCs [4]): 75.2 nM | IC50 (c-Src): 55 nM | IC50 (PBMCs [5]): 1.3 nM | IC50 (GSK 3α): 8710 nM

COc1c(CNC(C)=O)cc(C(C)(C)C)cc1NC(=O)Nc1ccc(Oc2ccnc(Nc3cc(OCCN4CCOCC4)cc(C(F)(F)F)c3)c2)c2ccccc12 [Example 52]
IC50 (PBMCs [1]): 43.5 nM | IC50 (Syk): > 1250 nM | IC50 [2]: > 1250 nM | inhibition at 5 µg/mL (PBMCs [3]): 46.8% | IC50 (PBMCs [4]): 5.5 nM | IC50 (c-Src): 235 nM | IC50 (PBMCs [5]): 2.8 nM | IC50 (GSK 3α): > 12500 nM

COCCOCCOCCNC(=O)c1cc(Nc2cc(Oc3ccc(NC(=O)Nc4cc(C(C)(C)C)cc(CC(N)=O)c4OC)c4ccccc34)ccn2)cc(OC)c1 [Example 53, 3-((4-((4-(3-(3-(2-Amino-2-oxoethyl)-5-(tert-butyl)-2-methoxyphenyl)ureido)naphthalen-1-yl)oxy)pyridin-2-yl)amino)-5-methoxy-N-(2-(2-(2-methoxyethoxy)ethoxy)ethyl)benzamide]
IC50 (PBMCs [1]): 52.5 nM | IC50 (Syk): > 1240 nM | IC50 [2]: 12 nM | inhibition at 5 µg/mL (PBMCs [3]): 22.3% | IC50 (PBMCs [4]): 6 nM | IC50 (c-Src): 22 nM | IC50 (PBMCs [5]): 1.1 nM | IC50 (GSK 3α): 1560 nM

COc1cc(Nc2cc(Oc3ccc(NC(=O)Nc4cc(C(C)(C)C)cc(S(C)(=O)=O)c4OC)c4ccccc34)ccn2)cc(C(=O)NCCN2CCOCC2)c1 [Example 54, 3-((4-((4-(3-(5-(tert-Butyl)-2-methoxy-3-(methylsulfonyl)phenyl)ureido)naphthalen-1-yl)oxy)pyridin-2-yl)amino)-5-methoxy-N-(2-morpholinoethyl)benzamide]
IC50 (PBMCs [1]): 37.9 nM | IC50 (Syk): 590 nM | IC50 [2]: 63 nM | inhibition at 5 µg/mL (PBMCs [3]): 51.9% | IC50 (PBMCs [4]): 3.7 nM | IC50 (c-Src): 43 nM | IC50 (PBMCs [5]): 1.5 nM | IC50 (GSK 3α): > 5020 nM

COc1cc(Nc2cc(Oc3ccc(NC(=O)Nc4cc(C(C)(C)C)cc([S+](C)[O-])c4OC)c4ccccc34)ccn2)cc(C(N)=O)c1 (stereo not drawn) [Example 55, 3-((4-((4-(3-(5-(tert-Butyl)-2-methoxy-3-(methylsulfinyl)phenyl)ureido)naphthalen-1-yl)oxy)pyridin-2-yl)amino)-5-methoxybenzamide]
IC50 (PBMCs [1]): 31.2 nM | IC50 (Syk): > 692 nM | IC50 [2]: 38 nM | inhibition at 5 µg/mL (PBMCs [3]): 51.7% | IC50 (PBMCs [4]): 6.2 nM | IC50 (c-Src): 37 nM | IC50 (PBMCs [5]): 0.6 nM | IC50 (GSK 3α): 2480 nM

COc1cc(Nc2cc(Oc3ccc(NC(=O)Nc4cc(C(C)(C)C)cc(CC(N)=O)c4OC)c4ccccc34)ccn2)cc(S(C)(=O)=O)c1 [Example 56, 2-(5-(tert-Butyl)-2-methoxy-3-(3-(4-((2-((3-methoxy-5-(methylsulfonyl)phenyl)amino)pyridin-4-yl)oxy)naphthalen-1-yl)ureido)phenyl)acetamide]
IC50 (PBMCs [1]): 234 nM | IC50 (Syk): > 1430 nM | IC50 [2]: 188 nM | inhibition at 5 µg/mL (PBMCs [3]): 17.6% | IC50 (PBMCs [4]): 9.5 nM | IC50 (c-Src): 83 nM | IC50 (PBMCs [5]): 1.2 nM | IC50 (GSK 3α): 1600 nM

COc1cc(Nc2cc(Oc3ccc(NC(=O)Nc4cc(C(C)(C)C)cc(OCCO)c4OC)c4ccccc34)ccn2)cc(C(N)=O)c1 [Example 57, 3-((4-((4-(3-(5-(tert-Butyl)-3-(2-hydroxyethoxy)-2-methoxyphenyl)ureido)naphthalen-1-yl)oxy)pyridin-2-yl)amino)-5-methoxybenzamide]
IC50 (PBMCs [1]): 92.9 nM | IC50 (Syk): > 1500 nM | IC50 [2]: 209 nM | inhibition at 5 µg/mL (PBMCs [3]): 50.6% | IC50 (PBMCs [4]): 7.8 nM | IC50 (c-Src): 98 nM | IC50 (PBMCs [5]): 1.1 nM | IC50 (GSK 3α): 3870 nM
